Experimental data as given in patent US5260257A, “Thermal transfer sheet” (Dai Nippon Printing Co., Ltd., priority 1991, dated 1993).

Experiment: light fastness test (xenon fadeometer, percentage fading)
Type: physicochemical
Conditions: 70 kJ/m^2
Procedure: The light fastness test was conducted as follows.
Irradiation was conducted by means of a xenon fadeometer Ci35A (manufactured by Atlas) under conditions of a black panel temperature of 50° C. and an integrating irradiation energy of 70 kJ/m^2.
The percentage fading was determined from a density change around an initial density of 1.0 according to the following equation.
Percentage fading=(1-I/I0)×100 (%)
I=optical density after irradiation; and
I0 =optical density before irradiation.
.largecircle.: less than 20% in the percentage fading
X : 20% or more in the percentage fading

[1] = Table A3, Comparative Examples A1-A6, 50° C.
[2] = Table B3, Comparative Examples B1-B6, 50° C.
[3] = Table C (C3), Comparative Examples C1-C6, 50° C.
[4] = Table B2, dyes of Table B1, 50° C.
[5] = Table C2, dyes of Table C1, 50° C.

For `CNc1ccc(NC)c2c1C(=O)c1ccccc1C2=O` [Comp. Ex. A1, C.I. Disperse Blue 14, reference compound], the Light fastness [1] was “Δ”, the Light fastness [2] was “Δ” and the Light fastness [3] was “Δ”.
With `CC(C)Nc1ccc(NC(C)C)c2c1C(=O)c1ccccc1C2=O` [Comp. Ex. A2, C.I. Disperse Blue 134, reference compound] the Light fastness [1] was “Δ”, the Light fastness [2] was “Δ” and the Light fastness [3] was “Δ”.
In the case of `CNc1ccc(Nc2cccc(C)c2)c2c1C(=O)c1ccccc1C2=O` [Comp. Ex. A3, C.I. Solvent Blue 63, reference compound], the Light fastness [1] is reported as “Δ”, the Light fastness [2] is reported as “Δ” and the Light fastness [3] is reported as “Δ”.
In the case of `CNc1ccc(O)c2c1C(=O)c1c(O)ccc(NC)c1C2=O` [Comp. Ex. A4, C.I. Disperse Blue 26, reference compound], the Light fastness [1] is reported as “Δ”, the Light fastness [2] is reported as “Δ” and the Light fastness [3] is reported as “Δ”.
In the case of `CNc1ccc(N)c2c1C(=O)c1ccccc1C2=O` [Comp. Ex. A5, C.I. Disperse Violet 4, reference compound], the Light fastness [1] is reported as “Δ”, the Light fastness [2] is reported as “Δ” and the Light fastness [3] is reported as “Δ”.
In the case of `CCN(CC)c1ccc(N=C2C=C(NC(=O)c3ccccc3)C(=O)C(Cl)=C2C)c(C)c1` [Comparative Example A6, reference compound], the Light fastness [1] is reported as “.largecircle. (less than 20% in the percentage fading)”.
For `CCN(CC)c1ccc(N=C2C=C(NC(=O)c3ccccc3)C(=O)C(Cl)=C2C)c(C)c1` [Comparative Example B6, reference compound], the Light fastness [2] was “.largecircle. (less than 20% in the percentage fading)”.
For `CCN(CC)c1ccc(N=C2C=C(NC(=O)c3ccccc3)C(=O)C(Cl)=C2C)c(C)c1` [Comparative Example C6, reference compound], the Light fastness [3] was “.largecircle. (less than 20% in the percentage fading)”.
For `CCN(CC)c1ccc(N=C2C=C(NC(=O)C3CC=CCC3)C(=O)C(Cl)=C2C)c(C)c1` (centres unmarked) [Dye No. 1 in Table B1], the Light fastness [4] was “.largecircle. (less than 20% in the percentage fading)”.
With `CCN(CC)c1ccc(N=C2C=C(NC(=O)C3CC4C=CC3C4)C(=O)C(Cl)=C2C)c(C)c1` (centres unmarked) [Dye No. 1 in Table C1] the Light fastness [5] was “.largecircle. (less than 20% in the percentage fading)”.
For `CCN(CCO)c1ccc(N=C2C=C(NC(=O)C3CC=CCC3)C(=O)C(Cl)=C2C)c(C)c1` (centres unmarked) [Dye No. 2 in Table B1], the Light fastness [4] was “.largecircle. (less than 20% in the percentage fading)”.
In the case of `CCN(CC)c1ccc(N=C2C=CC(=O)C(NC(=O)C3CC4C=CC3C4)=C2)c(C)c1` (centres unmarked) [Dye No. 2 in Table C1], the Light fastness [5] is reported as “.largecircle. (less than 20% in the percentage fading)”.
For `CCN(CC)c1ccc(N=C2C=C(NC(=O)C3CC=CCC3)C(=O)C=C2NC(C)=O)c(C)c1` (centres unmarked) [Dye No. 3 in Table B1], the Light fastness [4] was “.largecircle. (less than 20% in the percentage fading)”.
In the case of `CCN(CCO)c1ccc(N=C2C=C(NC(=O)C3CC4C=CC3C4)C(=O)C(Cl)=C2C)c(C)c1` (centres unmarked) [Dye No. 3 in Table C1], the Light fastness [5] is reported as “.largecircle. (less than 20% in the percentage fading)”.
In the case of `CCOc1cc(N(CC)CC)ccc1N=C1C=CC(=O)C(NC(=O)C2CC=CCC2)=C1` (centres unmarked) [Dye No. 4 in Table B1], the Light fastness [4] is reported as “.largecircle. (less than 20% in the percentage fading)”.
In the case of `CCN(CC)c1ccc(N=C2C=C(NC(=O)C3CC4C=CC3C4)C(=O)C=C2NC(C)=O)c(C)c1` (centres unmarked) [Dye No. 4 in Table C1], the Light fastness [5] is reported as “.largecircle. (less than 20% in the percentage fading)”.
In the case of `CCC1=C(Cl)C(=O)C(NC(=O)C2CC=CCC2)=CC1=Nc1ccc(N(CC)CC)cc1C` (centres unmarked) [Dye No. 5 in Table B1], the Light fastness [4] is reported as “.largecircle. (less than 20% in the percentage fading)”.
In the case of `CCOc1cc(N(CC)CC)ccc1N=C1C=CC(=O)C(NC(=O)C2CC3C=CC2C3)=C1` (centres unmarked) [Dye No. 5 in Table C1], the Light fastness [5] is reported as “.largecircle. (less than 20% in the percentage fading)”.
With `CCN(CC)c1ccc(N=C2C=C(NC(=O)C3CC=CCC3)C(=O)C(Cl)=C2C)c(NC(C)=O)c1` (centres unmarked) [Dye No. 6 in Table B1] the Light fastness [4] was “.largecircle. (less than 20% in the percentage fading)”.
In the case of `CCN(CC)c1ccc(N=C2C=C(NC(=O)C3CC4C=CC3C4)C(=O)C(Cl)=C2C)cc1` (centres unmarked) [Dye No. 6 in Table C1], the Light fastness [5] is reported as “.largecircle. (less than 20% in the percentage fading)”.
For `CCN(CCCl)c1ccc(N=C2C=C(NC(=O)C3CC=CCC3)C(=O)C(Cl)=C2C)c(NC(=O)NC)c1` (centres unmarked) [Dye No. 7 in Table B1], the Light fastness [4] was “.largecircle. (less than 20% in the percentage fading)”.
With `CCC1=C(Cl)C(=O)C(NC(=O)C2CC3C=CC2C3)=CC1=Nc1ccc(N(CC)CC)cc1C` (centres unmarked) [Dye No. 7 in Table C1] the Light fastness [5] was “.largecircle. (less than 20% in the percentage fading)”.
In the case of `CCOc1cc(N(CC)CC)ccc1N=C1C=CC(=O)C(NC(=O)C2C=CCCC2)=C1` (centres unmarked) [Dye No. 8 in Table B1], the Light fastness [4] is reported as “.largecircle. (less than 20% in the percentage fading)”.
For `CCN(CC)c1ccc(N=C2C=C(NC(=O)C3CC4C=CC3C4)C(=O)C(Cl)=C2C)c(NC(C)=O)c1` (centres unmarked) [Dye No. 8 in Table C1], the Light fastness [5] was “.largecircle. (less than 20% in the percentage fading)”.
For `CCOc1cc(N(CC)CCO)ccc1N=C1C=C(NC(=O)C2=CCCCC2)C(=O)C=C1NC(C)=O` [Dye No. 9 in Table B1], the Light fastness [4] was “.largecircle. (less than 20% in the percentage fading)”.
In the case of `CCN(CCCl)c1ccc(N=C2C=C(NC(=O)C3CC4C=CC3C4)C(=O)C(Cl)=C2C)c(NC(=O)NC)c1` (centres unmarked) [Dye No. 9 in Table C1], the Light fastness [5] is reported as “.largecircle. (less than 20% in the percentage fading)”.
With `CCN(CC)c1ccc(N=C2C=C(NC(=O)C3=CCC=CC3)C(=O)C(Cl)=C2C)c(C)c1` [Dye No. 10 in Table B1] the Light fastness [4] was “.largecircle. (less than 20% in the percentage fading)”.
For `CCOc1cc(N(CC)CCO)ccc1N=C1C=C(NC(=O)C2CC3C=CC2C3)C(=O)C=C1NC(C)=O` (centres unmarked) [Dye No. 10 in Table C1], the Light fastness [5] was “.largecircle. (less than 20% in the percentage fading)”.
In the case of `CCN(CC)c1ccc(N=C2C=CC(=O)C(NC(=O)C3C=CCC=C3)=C2)c(NC(C)=O)c1` [Dye No. 11 in Table B1], the Light fastness [4] is reported as “.largecircle. (less than 20% in the percentage fading)”.
With `CCN(CC)c1ccc(N=C2C=C(NC(=O)C3=CC4C=CC3C4)C(=O)C(Cl)=C2C)c(C)c1` (centres unmarked) [Dye No. 11 in Table C1] the Light fastness [5] was “.largecircle. (less than 20% in the percentage fading)”.
In the case of `CCN(CC)c1ccc(N=C2C=CC(=O)C(NC(=O)C3=CC4C=CC3C4)=C2)c(NC(C)=O)c1` (centres unmarked) [Dye No. 12 in Table C1], the Light fastness [5] is reported as “.largecircle. (less than 20% in the percentage fading)”.
With `CCN(CCC#N)c1ccc(N=C2C=C(NC(=O)C3CC=CC3)C(=O)C(Cl)=C2C)c(NS(C)(=O)=O)c1` [Dye No. 13 in Table B1] the Light fastness [4] was “.largecircle. (less than 20% in the percentage fading)”.
For `CCN(Cc1ccccc1)c1ccc(N=C2C=C(NC(=O)C3=CC4C=CC3C4)C(=O)C=C2NC(C)=O)cc1` (centres unmarked) [Dye No. 13 in Table C1], the Light fastness [5] was “.largecircle. (less than 20% in the percentage fading)”.
For `CCN(CCNS(C)(=O)=O)c1ccc(N=C2C=C(NC(=O)C3CC=CC3)C(=O)C=C2NS(C)(=O)=O)c(C)c1` [Dye No. 14 in Table B1], the Light fastness [4] was “.largecircle. (less than 20% in the percentage fading)”.
In the case of `CCN(CCC#N)c1ccc(N=C2C=C(NC(=O)C3=CC4C=CC3C4)C(=O)C(Cl)=C2C)c(NS(C)(=O)=O)c1` (centres unmarked) [Dye No. 14 in Table C1], the Light fastness [5] is reported as “.largecircle. (less than 20% in the percentage fading)”.
With `CCN(c1ccccc1)c1ccc(N=C2C=C(NC(=O)C3CC=CC3)C(=O)C=C2NC(=O)NC)c(Cl)c1` [Dye No. 15 in Table B1] the Light fastness [4] was “.largecircle. (less than 20% in the percentage fading)”.
For `CCN(c1ccccc1)c1ccc(N=C2C=C(NC(=O)C3=CC4C=CC3C4)C(=O)C=C2NC(=O)NC)c(Cl)c1` (centres unmarked) [Dye No. 15 in Table C1], the Light fastness [5] was “.largecircle. (less than 20% in the percentage fading)”.
With `CCN(c1ccccc1)c1ccc(N=C2C=C(NC(=O)C3=CCCC3)C(=O)C=C2NC(=O)NC)c(Cl)c1` [Dye No. 17 in Table B1] the Light fastness [4] was “.largecircle. (less than 20% in the percentage fading)”.
With `CCOCCN(CC)c1ccc(N=C2C=C(NC(=O)C3CC4CCC3C4)C(=O)C(Cl)=C2C)c(C)c1` (centres unmarked) [Dye No. 17 in Table C1] the Light fastness [5] was “.largecircle. (less than 20% in the percentage fading)”.
With `CCN(CC)c1ccc(N=C2C=C(NC(=O)C3=CCC=CC3)C(=O)C(Cl)=C2C)cc1` [Dye No. 18 in Table B1] the Light fastness [4] was “.largecircle. (less than 20% in the percentage fading)”.
With `CCN(CC)c1ccc(N=C2C=C(NC(=O)C3CC4C=C(C)C3C4)C(=O)C(Cl)=C2C)c(C)c1` (centres unmarked) [Dye No. 18 in Table C1] the Light fastness [5] was “.largecircle. (less than 20% in the percentage fading)”.
With `CCN(CCOC)c1ccc(N=C2C=C(NC(=O)C3=CCC=CC3)C(=O)C=C2NC(C)=O)c(NC(C)=O)c1` [Dye No. 19 in Table B1] the Light fastness [4] was “.largecircle. (less than 20% in the percentage fading)”.
In the case of `CCOc1cc(N(CC)CC)c(OCC)cc1N=C1C=C(NC(=O)C2CC3C=C(C)C2C3)C(=O)C(Cl)=C1C` (centres unmarked) [Dye No. 19 in Table C1], the Light fastness [5] is reported as “.largecircle. (less than 20% in the percentage fading)”.
With `CCN(CC)c1ccc(N=C2C=C(NC(=O)C3=CCC=CC3)C(=O)C=C2NC(C)=O)c(C)c1` [Dye No. 20 in Table B1] the Light fastness [4] was “.largecircle. (less than 20% in the percentage fading)”.
For `CCN(CC)c1ccc(N=C2C=C(NC(=O)C3CC4C=C(C)C3C4)C(=O)C=C2NC(C)=O)c(C)c1` (centres unmarked) [Dye No. 20 in Table C1], the Light fastness [5] was “.largecircle. (less than 20% in the percentage fading)”.
For `CCN(CCO)c1ccc(N=C2C=C(NC(=O)C3=CCC=CC3)C(=O)C(Cl)=C2C)c(C)c1` [Dye No. 21 in Table B1], the Light fastness [4] was “.largecircle. (less than 20% in the percentage fading)”.
